This note sets out measurements from US20250143290A1, “AGROCHEMICAL COMPOSITION COMPRISING AT LEAST ONE AGROCHEMICAL ACTIVE COMPONENT AND A SOLVENT” (MINAGRO SRL, priority 2022, published 2025).

The nature of data set [1]: Hansen and Hildebrand solubility parameters. The text has this:
The Hansen solubility parameters are used for predicting if one material will dissolve in another and form a (homogeneous) solution.
Furthermore, solvents with similar Hansen solubility parameters will have similar solubility characteristics, including which agrochemical active components will and which agrochemical active components will not dissolve in the solvents.

The next data set is described as follows: physchem. The settings on record: for solubility: organic solvent or mixture, thermodynamic from solid. The text has this:
Said saturated solutions were subsequently analyzed by HPLC to determine the agrochemical active component concentration. The samples were centrifuged and filtered twice through 1.6 and 0.45 μm filters to remove any extraneous material prior to analysis.
For each combination of agrochemical active component, a calibration curve was established to plot the instrumental response, e.g., the analytical signal, changes with the concentration of the agrochemical active component.

A further data set deals with Lactuca sativa. Put plainly: Phytotoxicity study on lettuce. It counts as in vivo. The settings on record: lettuce Lucrecia RZ sprayed until saturation at 1%, 2%, 5% and 10%; 5 and 10 days after spraying. As to the method: The aim of this experiment is to determine if these solvents can cause phytotoxicity on lettuce at different concentrations. Lettuce of the Lucrecia RZ variety was sown in potting soil and transplanted into 3L pots. For each of the solvents, four concentrations were tested: 1%, 2%, 5% and 10%. A control (water) was also performed. […] Fifteen replicates per treatment were conducted. A monitoring of the appearance of potential spots due to phytotoxicity is carried out 5 days and 10 days after spraying.

For data set [2], the system named is microorganisms of the inoculum.
Experimental: The test duration is 28 days. The vessels contained 250 ml of the inoculated buffered mineral salt medium and the test material (test substance or reference substance) as the sole carbon source. To each test series blanks (without test material) were set up to run in parallel. Incubation was conducted at 22±1° C. in diffuse light and agitation by magnetic stirrers. All analyses were conducted at least in duplicate. Oxygen consumption was continuously measured with a respirometer. The amount of oxygen taken up by the microorganisms during biodegradation (biological oxygen demand; BOD) is compared with the chemical oxygen demand (COD) of the test substance. The percent biodegradation of the test substance is calculated from the BOD in relation to the COD or alternative of the theoretical oxygen demand (ThOD) of the test substance. The test material (92 mg/L) was distributed in a thin layer on an inert carrier (glass fiber filter) and added directly to the aqueous medium.

For `O=C1CCCCC1` [Cyclohexanone], in data set [1], the “Hansen Solubility Parameters δd” value was 17.8 J/mL, the “Hansen Solubility Parameters δn” value amounted to 5.1 J/mL, the “Hansen Solubility Parameters δp” value is 6.3 J/mL and the “Hildebrand δ” value amounted to 19.56 J/mL.
For `CCOC(C)=O` [Ethyl Acetate], in that order: 15.8 J/mL, 7.2 J/mL, 5.3 J/mL and 18.15 J/mL.
As for `Nc1c(Cl)c(F)nc(OCC(=O)O)c1Cl` [Fluroxypyr], in the data set “physchem”, the Solubility in saturation came to 546.25 mg/mL. Moreover, the solubility (in general, the dissolved amount per volume that the medium holds) in the data set “physchem” (Solubility in saturation) amounted to 537 mg/mL.
Turning to `CC1=CC(=O)CC(C)(C)C1` [Isophorone], in data set [1], the “Hansen Solubility Parameters δd” value amounted to 16.6 J/mL, the “Hansen Solubility Parameters δn” value was 7.4 J/mL, the “Hansen Solubility Parameters δp” value was 8.2 J/mL and the “Hildebrand δ” value was found to be 19.94 J/mL.
Turning to `CC1(C)CCC(Cc2ccc(Cl)cc2)C1(O)Cn1cncn1` (stereo not shown) [Metconazole], the solubility in “physchem” (Solubility in saturation) was determined as 210 mg/mL.
For `COC(=O)Nc1cccc(OC(=O)Nc2cccc(C)c2)c1` [Phenmidipham], the Solubility in saturation in “physchem” (in n-butyl THF, saturated solution MT 181, HPLC, pure active ingredient) stood at 35.66 mg/mL; in “physchem” (in t-butyl THF, saturated solution MT 181, HPLC, pure active ingredient) it was 37.11 mg/mL.
Consider `OC(Cc1ccccc1Cl)(Cn1nc[nH]c1=S)C1(Cl)CC1` (stereo not shown) [Prothioconazole], for which the solubility in “physchem” was 341 mg/mL.
Regarding `CC(COc1ccc(Oc2ccccc2)cc1)Oc1ccccn1` (stereo not shown) [Pyriproxyfen], the solubility in the data set “physchem” (Solubility in saturation) stood at 631 mg/mL.
For `OCC1CCCO1` (stereo not shown) [THFA TetraHydroFurfurylAlcohol, TetraHydroFurfurylAlcohol], in data set [1], the “Hansen Solubility Parameters δd” value stood at 17.8 J/mL, the “Hansen Solubility Parameters δn” value came to 10.2 J/mL, the “Hansen Solubility Parameters δp” value stood at 8.2 J/mL and the “Hildebrand δ” value was 22.09 J/mL.
Turning to `CC(C)(C)C(O)(CCc1ccc(Cl)cc1)Cn1cncn1` (stereo not shown) [Tebuconazole], the solubility is 181 mg/mL in “physchem” (Solubility in saturation) and 188 mg/mL in “physchem” (t-butyl THF, Solubility in saturation, in t-butyl THF, saturated solution MT 181, HPLC, pure active ingredient).
For `CCCCOCC1CCCO1` (stereo not shown) [n-butyl THF, 2-(butoxymetyl)tetrahydrofuraan], in data set [1], the “Hansen Solubility Parameters δd” value amounted to 16.47 J/mL, the “Hansen Solubility Parameters δn” value turned out to be 5.96 J/mL, the “Hansen Solubility Parameters δp” value was 4.74 J/mL and the “Hildebrand δ” value worked out at 18.15 J/mL. In addition, in the data set on Lactuca sativa, the “phytotoxicity on salads (spots)” value was “absence of phytotoxicity”. Also, in data set [2], the “inhibition of the microorganisms of the inoculum” value is reported as “non-inhibitory”.
For the compound `CCCCOC(C)=O` [n-butyl acetate], in data set [1], the “Hansen Solubility Parameters δd” value came out at 15.8 J/mL, the “Hansen Solubility Parameters δn” value was found to be 6.3 J/mL, the “Hansen Solubility Parameters δp” value was found to be 3.7 J/mL and the “Hildebrand δ” value was 17.41 J/mL.
For `Cc1ccc(C)cc1` [p-Xylène], in that order: 17.6 J/mL, 3.1 J/mL, 1 J/mL and 17.90 J/mL.
Consider `CC(C)(C)OCC1CCCO1` (stereo not shown) [t-butyl THF, 2-(tert-Butoxymethyl)tetrahydrofuran], for which, in the data set with Lactuca sativa, the “phytotoxicity on salads (spots)” value is on record as “absence of phytotoxicity”.
